In the METLIN SMRT retention time set (Domingo-Almenara et al. 2019):

Assay: gradient 5% acetonitrile 3 min, to 50% in 2 min, to 85% in 15 min, held 3 min, 100 µL/min
Conditions: column: Zorbax Extend-C18 2.1 x 50 mm; eluents: water / acetonitrile, 0.1% formic acid
Procedure, shortened: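 The system's dead and dwell volumes were 40 μL and 900 μL, with a Zorbax Extend-C18 column (2.1 × 50 mm, 1.8 μm) run at 100 μL/min in water and acetonitrile containing 0.1% formic acid each. Pure standards were analyzed in mixtures of ~100 molecules by HPLC–quadrupole time-of-flight mass spectrometry in positive and negative ionization mode. Retention time was assigned from computationally picked, manually inspected adduct peaks.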

Row | Structure (SMILES) | RP-LC retention time [s]
1 | CN(CC1CCCO1)S(=O)(=O)c1ccc(C(=O)Nc2sc3c(c2C#N)CCC3)cc1 (stereo not drawn) | 957
2 | COC(=O)Nc1ccc(CC(=O)NC2CC2)cc1 | 592
3 | O=C(Cn1cccc1-c1nc(-c2ccc3c(c2)OCO3)no1)Nc1ccc(F)c(F)c1 | 1100
4 | Cc1oc(-c2[nH]ncc2C(=O)N(C)C)cc1S(=O)(=O)NCc1ccco1 | 622
5 | CCCC(=O)Nc1nc(-c2ccc3c(c2)N(CC)C(=O)CO3)cs1 | 853
6 | O=C(c1nnc(-c2csc(S(=O)(=O)N3CCN(c4ncccn4)CC3)c2)o1)N1CCCCC1 | 881
7 | CCc1noc(NC(C)=O)c1-c1ccc(C)c(S(=O)(=O)N2CCCCC2)c1 | 879
8 | Cc1ccc(NC(=O)N2CCc3[nH]cnc3C2c2ccncc2)cc1C (stereo not drawn) | 582
9 | CCOC(=O)CNC(=O)N1CCN(c2nc3ccccc3nc2C(F)(F)F)CC1 | 881
10 | O=c1cc(N2CCOCC2)oc2c(-c3cccc4c3sc3ccccc34)cccc12 | 1190
11 | CC(C)Cn1cnc2c(-c3ccc(F)cc3)csc2c1=O | 1030
12 | O=C(Nc1ccccc1)Nc1ccccn1 | 736
13 | Cc1ccc(-c2cc3n(n2)C(NCCc2cccs2)CNC3=O)cc1 (stereo not drawn) | 739
14 | CC(C)n1cnc(S(=O)(=O)N2CCCC(C(=O)Nc3ccc(F)c(Cl)c3)C2)c1 (stereo not drawn) | 848
15 | CCN1CCC2(CC1)N=C(c1ccc(Br)cc1)CC(c1cccc(OC)c1O)N2 (stereo not drawn) | 618
16 | CN(CCCNC(=O)C1CCCN(S(=O)(=O)c2ccc3c(ccn3C)c2)C1)Cc1ccccc1 (stereo not drawn) | 696
17 | CCOC(=O)c1cc(C)nc2c1c(=O)n(Cc1ccccc1)c(=O)n2C | 879
18 | COc1ccc(OC)c(S(=O)(=O)N2CCC(Cn3c(C)cnc3C)C2)c1 (stereo not drawn) | 626
19 | Cc1ccsc1C(=O)N1CCc2nn(C)c(=O)n2CC1 | 610
20 | Brc1ccc(OCc2nnc3sc(-c4ccccn4)nn23)cc1 | 960
21 | COC(=O)c1nnn(-c2ccc(C(C)C)cc2)c1C(=O)OC | 996
22 | COc1ccc(S(=O)(=O)N2CCC(CCOc3ccccc3F)C2)cc1 (stereo not drawn) | 1060

Row | Structure (SMILES) | RP-LC retention time [s]
23 | Cc1c(NC(=O)Cc2csc(NC(=O)C(C)(C)C)n2)c(=O)n(-c2ccccc2)n1C | 630
24 | COc1cc(C)c(C)cc1S(=O)(=O)Nc1ccc(Cl)c(N2CCCS2(=O)=O)c1 | 1080
25 | O=C(c1n[nH]c(=O)c2ccccc12)N1CCCC1c1nc(CCOCC2CCCC2)no1 (stereo not drawn) | 848
26 | COc1cccc(N2CCN(c3ccnc(SCC(=O)Nc4cc(OC)ccc4OC)n3)CC2)c1 | 818
27 | O=C(Cn1ccn2nc(-c3ccccc3)c(CO)c2c1=O)Nc1ccc2c(c1)OCCO2 | 759
28 | O=C(NCc1ccco1)C1CCN(C(=O)c2ncn3c2COC(c2ccc(F)cc2)C3)CC1 (stereo not drawn) | 711
29 | O=C(O)c1cc2cccc([N+](=O)[O-])c2[nH]1 | 746
30 | O=C(c1ccoc1)N1CCCC(OCc2nc(C3CC3)no2)C1 (stereo not drawn) | 742
31 | Cc1ccccc1NC(=O)Nc1ccc2nncn2c1 | 668
32 | CCc1ccc(-n2nnc(C(=O)N3CCCCC3C)c2-c2cccnc2)cc1 (stereo not drawn) | 866
33 | COC(=O)C1=CN(c2cc(OC)cc(OC)c2)c2ccc(F)cc2S1(=O)=O | 908
34 | O=C(CCc1c(-c2ccc(Br)cc2)nc2ccccn12)NC1CC1 | 610
35 | Cc1ccc(-c2noc(-c3cccn(CC(=O)NC(C)C)c3=O)n2)cc1 | 764
36 | O=C(Nc1ccccc1C(F)(F)F)c1cnc(-c2ccccc2)nc1-c1ccncc1 | 915
37 | CCc1nc(-c2cc(S(=O)(=O)NCC(=O)NC3CCCCC3)c(C)s2)no1 | 906
38 | CCCOc1ccc(C2C(=O)N(C3CCCCC3)CC(=O)N2Cc2ccco2)cc1OC (stereo not drawn) | 973
39 | Cc1c(C(=O)NCCCn2ncccc2=O)nnn1-c1nccs1 | 630
40 | CCOC(=O)C1CCCN(Cc2cn3cc(F)ccc3n2)C1 (stereo not drawn) | 559
41 | COc1ccc(NC(=O)C2c3cc(OC)c(OC)cc3C(=O)N(C)C2c2cccs2)c(OC)c1 (stereo not drawn) | 846
42 | CCc1ccccc1NC(=O)Cn1nc2cc(C)nc(Nc3ccc(F)cc3)n2c1=O | 1040
43 | Cc1ccc(NC(=O)N2CCC(n3cnc4c(C)cccc4c3=O)CC2)cc1C | 872
44 | COC(=O)c1ccc2nc(NC(=O)c3cc(Cl)ccc3Cl)sc2c1 | 965

Row | Structure (SMILES) | RP-LC retention time [s]
45 | OC(COCC(c1ccccc1)c1ccccc1)Cn1cnc2ccccc21 (stereo not drawn) | 639
46 | CCOCC(=O)N1C[C@H]2C[C@H](C1)[C@H]1CCCC(=O)N1C2 | 582
47 | Cc1cc2nn(CC(=O)NCc3ccccc3)c(=O)n2c(Nc2ccc(C)c(C)c2)n1 | 1060
48 | CC(C)c1nnc(-c2ccc(S(=O)(=O)N3CCCC3)o2)o1 | 815
49 | COc1cc(-c2noc(Cn3ncn4nc(-c5cccs5)cc4c3=O)n2)cc(OC)c1OC | 983
50 | CCOc1ccc(CNC(=O)c2c(C)sc3ccn(CC)c(=O)c23)cc1 | 836
51 | COc1ccccc1CNC(=O)c1c(C)sc2ccn(CC(C)C)c(=O)c12 | 989
52 | Cc1nc(N2CCC(C(=O)Nc3ccc(F)cc3F)CC2)c2c(C)c(C)oc2n1 | 874
53 | CC(C)(c1cc(Cl)c(O)c(CN2CCOCC2)c1)c1cc(Cl)c(O)c(CN2CCOCC2)c1 | 630
54 | CCN1CCC(N(Cc2cccs2)C(=O)Nc2ccc(Cl)cc2)CC1 | 682
55 | Cc1ccc(NC(=O)C(C)C2CCN(C(=O)Nc3ccc(Cl)cc3)CC2)cc1 (stereo not drawn) | 963
56 | CCc1nnc(NC(=O)c2c[nH]c3c(Cl)cccc3c2=O)s1 | 693
57 | Cc1ccsc1C1C2=C(CC(C)(C)CC2=O)OC2=C1C(=O)CC(C)(C)C2 | 1090
58 | COc1ccc(OCC2c3cc(OC)c(OC)cc3CCN2C(=O)c2cccc(Cl)c2)cc1 (stereo not drawn) | 1120
59 | Cc1ccccc1Cn1cc(-c2ccncc2)cc1C(=O)NC(C)c1cccnc1 (stereo not drawn) | 579
60 | CCNC(=O)c1[nH]c2ccc(F)cc2c1N1CCCC1=O | 676
61 | CCc1ccc(-n2cc(C(=O)OCc3cc(=O)n4ccccc4n3)c3ccccc3c2=O)cc1 | 991
62 | COc1ccc(-c2nnc(NC(=O)c3ccc(S(=O)(=O)N(C)C)cc3)s2)c(OC)c1 | 808
63 | O=C(Nc1ccc(OCc2nnc(-c3ccccc3)o2)cc1)c1n[nH]c2c1CCCC2 | 886
64 | CNC(=O)c1c(NC(=O)C2COc3ccccc3O2)sc2c1CCCC2 (stereo not drawn) | 1030
65 | O=C(NCCCn1c(-c2ccncc2)nc2cccnc21)Nc1cccc(C(F)(F)F)c1 | 725
66 | Cc1ccc(Nc2c(-c3ccc([N+](=O)[O-])cc3)nc3ccc(Cl)cn23)cc1 | 1100

Row | Structure (SMILES) | RP-LC retention time [s]
67 | CC1CCCCN1S(=O)(=O)c1ccc(C(=O)Nc2nc3c(s2)CCc2ccccc2-3)cc1 (stereo not drawn) | 1270
68 | CCCNC(=O)C1CCN(S(=O)(=O)c2cc(C(=O)N3CCC(C)CC3)n(C)c2)CC1 | 738
69 | CCn1cc(S(=O)(=O)NCCc2noc(-c3ccncc3)n2)cn1 | 645
70 | CN(C)C[C@@H]1CN(C)C[C@H]1NC(=O)c1ccc(Br)cc1 | 553
71 | Cc1cccc(NC(=O)c2cccn2Cc2noc(C3CC3)n2)c1C | 954
72 | Clc1ccc(Nc2c(-c3ccc(N4CCOCC4)cc3)nc3cnccn23)cc1 | 842
73 | Cc1cccc(NC(=O)C2CCCN2S(=O)(=O)c2cc3c(cc2Cl)NC(=O)CO3)c1C (stereo not drawn) | 891
74 | Cc1ccc(-c2nc3cnccn3c2Nc2ccc(Br)cc2)cc1 | 1030
75 | Cc1ccn2cc(C(=O)NCc3ccc(OC(C)C)cc3)nc2c1 | 713
76 | COC(=O)c1ccc(N2C=C(C(=O)N3CCCC3)S(=O)(=O)c3ccc(Cl)cc32)cc1 | 842
77 | Cc1ccc(Cl)cc1N1CCN(S(=O)(=O)c2nn(C)cc2C(=O)NCCN(C)C)CC1 | 732
78 | COCCc1noc(C2CN(S(=O)(=O)Cc3ccccc3F)C2)n1 | 858
79 | COC(=O)C1CCN(C(=O)Cc2csc(Nc3ccc(F)cc3)n2)CC1 | 689
80 | O=C(NCCc1ccccc1)N1CCCC(Cn2cnc3cccnc32)C1 (stereo not drawn) | 635
81 | O=C(Nc1ccccc1)NC1CCN(C(=O)N2C[C@H]3C[C@H](C2)[C@H]2CCCC(=O)N2C3)CC1 | 654
82 | Cn1nccc1C(=O)N1CC(c2nc(CCOCC3CCCC3)no2)C1 | 824
83 | Cc1nc2ccn(Cc3ccco3)c(=O)c2cc1C(=O)NCCCN1CCOCC1 | 578
84 | CS(=O)(=O)N1CCN(C(=O)CCc2csc(NC(=O)c3ccc(F)cc3)n2)CC1 | 666
85 | CCc1cc(=O)n(CC(=O)Nc2ccc(Br)cc2F)c(N2CCOCC2)n1 | 853
86 | COc1ccc(F)cc1S(=O)(=O)N1CCC(F)(c2nc(CC(C)C)no2)CC1 | 1120
87 | Cc1ccc(S(=O)(=O)N2CCN(c3cc(C)nc(NC4CCCCC4)n3)CC2)cc1 | 811
88 | COc1cc2c(cc1OC)C(C(=O)NCCN1CCOCC1)C(c1cccs1)N(C)C2=O (stereo not drawn) | 604
